The target in test [1] is T1, recombinant LOXL2 (Homo sapiens, UniProt Q9Y4K0).
T1 construct: purchased R&D Systems
T1 sequence (Q9Y4K0 26-774): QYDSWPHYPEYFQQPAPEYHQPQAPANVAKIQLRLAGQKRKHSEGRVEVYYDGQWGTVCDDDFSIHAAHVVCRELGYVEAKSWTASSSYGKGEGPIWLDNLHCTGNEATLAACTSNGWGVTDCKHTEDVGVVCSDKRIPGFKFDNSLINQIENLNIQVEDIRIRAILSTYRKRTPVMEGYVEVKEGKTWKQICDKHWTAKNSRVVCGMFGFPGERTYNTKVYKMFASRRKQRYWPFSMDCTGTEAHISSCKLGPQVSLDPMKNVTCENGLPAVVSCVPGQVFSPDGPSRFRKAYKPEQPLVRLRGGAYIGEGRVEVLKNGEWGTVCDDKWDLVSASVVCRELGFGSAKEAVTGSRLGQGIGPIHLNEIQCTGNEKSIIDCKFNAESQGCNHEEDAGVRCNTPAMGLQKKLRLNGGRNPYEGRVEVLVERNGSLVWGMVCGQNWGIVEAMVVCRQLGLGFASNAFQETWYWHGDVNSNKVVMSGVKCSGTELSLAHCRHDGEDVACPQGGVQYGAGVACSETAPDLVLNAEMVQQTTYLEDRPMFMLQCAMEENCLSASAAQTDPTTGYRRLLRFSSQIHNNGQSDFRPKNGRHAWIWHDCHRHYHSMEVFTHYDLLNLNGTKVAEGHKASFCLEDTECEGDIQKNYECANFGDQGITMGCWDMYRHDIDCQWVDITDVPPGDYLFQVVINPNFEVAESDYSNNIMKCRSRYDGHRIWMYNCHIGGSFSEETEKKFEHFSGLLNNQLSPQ
The test can be described thus: Amplex Red activity/inhibition assay, recombinant LOXL2. The test is classed as biochemical. To be noted: putrescine substrate. How it is done:
(§1) The standard amplex red assay has been used as previously described using putrescine as a substrate and native ´fibroblast derived LOX, which was prepared by collecting the supernatant of IMR90 cells, followed by a size filtration > 10 kDa for concentration and < 50 kDa to separate from LOXL2, or recombinant LOXL2 as enzyme (R&D Systems).

Test [2] deals with T2, native human LOX enzyme (Homo sapiens, UniProt P28300).
T2 construct: fibroblast derived LOX, which was prepared by collecting the supernatant of IMR90 cells; endogenous in cells; host or cells: IMR90 cells (supernatant, size filtered > 10 kDa and < 50 kDa)
T2 sequence (P28300 169-417): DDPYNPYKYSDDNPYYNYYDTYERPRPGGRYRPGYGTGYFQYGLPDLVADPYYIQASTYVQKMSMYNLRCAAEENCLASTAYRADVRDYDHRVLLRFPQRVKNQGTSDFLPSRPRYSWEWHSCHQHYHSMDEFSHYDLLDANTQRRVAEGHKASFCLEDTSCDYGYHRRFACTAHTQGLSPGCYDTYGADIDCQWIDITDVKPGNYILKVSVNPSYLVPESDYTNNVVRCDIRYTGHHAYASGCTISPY
Kind of test: Amplex Red activity/inhibition assay, native fibroblast-derived LOX. In kind it is biochemical. To be noted: native fibroblast (IMR90) derived LOX; putrescine substrate. How it is done: as §1

One compound from paper PMC5432238, “Pre-clinical evaluation of small molecule LOXL2 inhibitors in breast cancer” (Oncotarget, 2017) can be followed below.

In the case of `N#CCCN` [BAPN, β-aminopropionitrile], the “pIC50 ± SD against recombinant LOXL2 enzyme” value in test [1] came to 6.4 ± 0.1. Moreover, the “pIC50 ± SD against native human LOX enzyme” value in test [2] came to 5.5 ± 0.1.
